Four compounds from ChEMBL document CHEMBL1201862, “PubChem BioAssay data set” (2004) can be followed below.

Usually AC50 stands for the midpoint of the concentration-response curve, whichever way the signal moves. By IC50 is commonly meant the point on the concentration scale where inhibition reaches its midpoint. As usually defined, the CC50 is the concentration at which the toxic effect on the cells reaches its halfway point.

A short description of assay [1]: Luminescence Cell-Based Dose Retest to Confirm Inhibitors of Cancer Stem Cells. [Related pubchem assays (depositor defined):AID2717, AID2721]. The class given is functional. The settings on record: Homo sapiens.
A short description of assay [2]: cytotoxicity in HMLE control line with eGFP shRNA, dose response, counter-screen for HMLE_sh_ECad selective toxicity project, cell-based, HMLE_sh_eGFP, luminescence (AID 463074).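 Further: HMLE human mammary epithelial cells expressing control shRNA against eGFP.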 The class given is functional, Homo sapiens. Background: Counterscreens check selectivity or assay interference.
In assay [3] the target is T1, High affinity choline transporter 1 (Homo sapiens, UniProt Q9GZV3).
T1 sequence (Q9GZV3 whole entry): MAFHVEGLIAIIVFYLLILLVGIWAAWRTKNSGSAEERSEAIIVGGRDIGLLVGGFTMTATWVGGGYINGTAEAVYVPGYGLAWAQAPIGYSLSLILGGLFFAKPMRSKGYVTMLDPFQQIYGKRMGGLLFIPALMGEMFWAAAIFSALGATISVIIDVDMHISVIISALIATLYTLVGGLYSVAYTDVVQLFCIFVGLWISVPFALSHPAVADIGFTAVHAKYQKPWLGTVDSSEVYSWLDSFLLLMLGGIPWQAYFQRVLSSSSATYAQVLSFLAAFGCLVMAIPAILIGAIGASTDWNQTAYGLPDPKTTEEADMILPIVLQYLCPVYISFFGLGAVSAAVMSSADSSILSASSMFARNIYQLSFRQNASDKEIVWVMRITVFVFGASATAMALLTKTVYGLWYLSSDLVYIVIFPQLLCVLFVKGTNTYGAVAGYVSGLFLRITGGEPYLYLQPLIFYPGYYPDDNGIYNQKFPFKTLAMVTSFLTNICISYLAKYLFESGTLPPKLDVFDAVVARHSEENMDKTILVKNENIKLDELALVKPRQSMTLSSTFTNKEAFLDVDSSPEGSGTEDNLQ
The assay is described as follows: CHT inhibitors, dose response, cell-based, 5-point CRC, membrane potential dye (AID 504840). The class given is functional.

Assay [4] deals with Trypsin (Sus scrofa, UniProt P00761). The assay is described as follows: porcine trypsin inhibitors, dose response, selectivity assay for Rce1 protease inhibitor project, biochemical, quenched peptide fluorescence, cherry-pick (AID 488789).
Sequence of Trypsin (P00761 whole entry): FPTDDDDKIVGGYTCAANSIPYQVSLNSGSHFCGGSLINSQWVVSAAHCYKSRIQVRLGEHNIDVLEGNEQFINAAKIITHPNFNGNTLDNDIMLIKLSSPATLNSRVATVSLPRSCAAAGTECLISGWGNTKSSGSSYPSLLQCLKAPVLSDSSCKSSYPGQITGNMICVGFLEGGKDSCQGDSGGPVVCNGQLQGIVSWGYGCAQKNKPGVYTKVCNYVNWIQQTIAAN
Assay [5] can be described thus: HepG2 cell cytotoxicity, dose response, cytotoxicity control for non-replicating M. tuberculosis project (AID 489018). The class given is functional. The note with it: Mycobacterium tuberculosis.
The nature of assay [6]: Vero E6 cell cytotoxicity, dose response, cytotoxicity control for non-replicating M. tuberculosis project, secondary assay (AID 492998). The class given is functional, VeroE6. The note with it: Vero C1008.
Assay [7] concerns the target CAAX prenyl protease 1 (Saccharomyces cerevisiae S288c, UniProt P47154). The assay is described as follows: Ste24 protease inhibitors, dose response, biochemical, S. cerevisiae, plate reader, cherry-pick (AID 488815).
Assay [8] in a line: cells. The class given is functional.
Assay [9] deals with T2, CAAX prenyl protease 2 (Homo sapiens, UniProt Q9Y256).
T2 sequence (Q9Y256 whole entry): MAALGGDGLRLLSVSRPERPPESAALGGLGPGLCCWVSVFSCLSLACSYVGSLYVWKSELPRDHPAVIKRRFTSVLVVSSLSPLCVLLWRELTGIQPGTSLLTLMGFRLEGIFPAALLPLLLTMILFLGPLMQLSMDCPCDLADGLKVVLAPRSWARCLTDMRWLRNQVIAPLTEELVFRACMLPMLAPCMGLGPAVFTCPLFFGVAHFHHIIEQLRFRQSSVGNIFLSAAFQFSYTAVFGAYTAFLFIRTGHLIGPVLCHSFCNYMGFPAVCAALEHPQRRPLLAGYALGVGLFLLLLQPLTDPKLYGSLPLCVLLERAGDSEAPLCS
The experiment in a line: human Rce1 protease inhibitors, dose response, biochemical, yeast membranes, quenched-peptide fluorescence, cherry-pick (AID 588849).

The nature of assay [10]: insulin promoter down-regulators in MIN6 cells, imaging, high-content screening, mouse beta cells (AID 1628). The class given is functional.
A short description of assay [11]: cytotoxicity in MIN6 insulinoma cells, dose response, cytotoxicity control, cell-based, mouse insulinoma (AID 2122).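 Further: confirmatory high-throughput counterscreen run to flag cytotoxic compounds; mouse MIN-6 beta cells carrying an insulin promoter eGFP reporter.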 The class given is functional.
Assay [12] deals with Jurkat. The assay is described as follows: SAR Analysis of small molecule inhibitors of […] specific antigen receptor-induced NF-kB activation in a Jurkat cell line using a luminescence assay - Set 3. [Related pubchem assays (depositor defined):AID435022, AID435025, AID465]. The class given is functional, cell-based. The note with it: Homo sapiens.
Assay [13] concerns HEK293. The experiment in a line: SAR Analysis of small molecule inhibitors of B-cell specific antigen receptor-induced NF-kB activation in a HEK-293T cell line using a luminescence assay - Set 2. [Related pubchem assays (depositor defined):AID435022, AID435025, AID489021]. The class given is functional, cell-based. The note with it: Homo sapiens.
The test system of assay [14] is HEK293. The assay is described as follows: cytotoxicity in HEK293T NF-kB-Luc cells, SAR follow-up, cytotoxicity control for NF-kB activator project, cell-based, resazurin fluorescence (AID 493251). The class given is functional. The settings on record: Homo sapiens. (In general: The colour change of resazurin is a common sign of viable cells or microbes.)

Each structure is given as a SMILES string. Calls of active or inactive are those of the source.

Sequence of CAAX prenyl protease 1 (P47154 whole entry): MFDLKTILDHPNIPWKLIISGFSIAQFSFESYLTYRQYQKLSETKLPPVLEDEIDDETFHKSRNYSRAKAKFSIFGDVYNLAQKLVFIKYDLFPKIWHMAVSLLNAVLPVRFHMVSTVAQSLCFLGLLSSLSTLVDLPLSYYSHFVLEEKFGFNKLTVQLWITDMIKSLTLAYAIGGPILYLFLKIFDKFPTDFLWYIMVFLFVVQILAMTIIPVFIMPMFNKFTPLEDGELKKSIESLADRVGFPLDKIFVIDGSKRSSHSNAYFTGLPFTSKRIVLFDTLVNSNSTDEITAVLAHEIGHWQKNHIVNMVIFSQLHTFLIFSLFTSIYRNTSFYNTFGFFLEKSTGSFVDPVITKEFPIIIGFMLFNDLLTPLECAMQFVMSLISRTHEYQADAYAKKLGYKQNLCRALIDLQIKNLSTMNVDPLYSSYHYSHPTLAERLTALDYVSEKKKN

In the case of `COc1ccc(CN(C)c2ncnc3sccc23)c(OC)c1OC`, the values for the concentration at half-maximal activity (AC50) in assay [1] and in assay [2] were 15.8 µM (active) and 27.4 µM (active), respectively. Also, the IC50 in assay [3] was 13.8 µM (active).
On to `Cc1nn2c(NCCN(C)C)c3c(nc2c1-c1ccccc1)CCCC3`, for which the values for the AC50 in [4], in [7] and in assay [9] were 12.7 µM (active), 4.57 µM (active) and 14.3 µM (active), respectively. Further, the CC50 in [5] was 16.4 µM (active); in assay [6] it was > 20 µM (active). The half-maximal inhibitory concentration (IC50) in assay [8] was 5.84 µM (active).
In the case of `Nc1c2c(nc3ccc(Br)cc13)N(C1CCCCC1)CC2`, the values for the IC50 in assay [10] and in [11] were 3.06 µM (active) and 4.61 µM (active), respectively.
Regarding `CC(C)(C)c1ccc(-c2noc(CCC(=O)Nc3ccccc3)n2)cc1`, the IC50 was 0.473 µM (active) in assay [12], 0.23 µM (active) in [13] and > 80 µM (inactive) in [14].
